Results published in patent publication US6342517B1, “Potassium channel activators and their use” (Cambridge Bioclinical Limited, priority 1998, dated 2002).

How the values were obtained:
[1] = system: NIH 3T3 fibroblasts; experiment: Cell growth potentiation test (potentiation of mitogenic activity of fetal calf serum, EZ4U cellular proliferation assay); format: cell-based; conditions: for Cell growth potentiation relative to minoxidil at 100 μM (%): 0% = base concentration of FCS alone (5% or 3%), 100% = minoxidil at 100 μM; for Cell growth relative to FCS alone (%): 100% = same growth as base concentration of FCS alone
Description: To test for activity in mammalian hair growth stimulation, an in vitro test of cell growth potentiation has been applied to a number of the compounds of the invention and prior art compounds 11901 and 11903. The test involves an assay of the call growth due to potentiation of the mitogenic activity of fetal calf serum (FCS). See WO97/14036. Details of materials, methods and results are as follows.
Tissue culture plastics were obtained from Beckton Dickinson (Cowley, Oxford, UK). NIH 3T3 fibroblasts were obtained from the European collection of animal cell cultures (Salisbury, Wilts, UK). Dulbecco's modified Eagle's medium (DMEM) was obtained from Flow Laboratories (Rickmansworth, Herts, UK). L-Glutamine and fetal calf serum were from Gibco (Paisley, UK).
The EZ4U cell proliferation assay kits were obtained from Cozart Bioscience Ltd (Abingdon, Oxon, UK). All other chemicals were obtained from Sigma Chemical Company Ltd. (Poole, Dorset, UK), and of the highest grade available.
NIH 3T3 fibroblasts were maintained in Dulbecco's modified Eagle's medium supplemented with 10% FCS and 2 mM L-glutamine in 150 cm^2 tissue culture flasks at 37° C. in an atmosphere of 5% CO2/95% air. Antibiotics were omitted. Medium was changed every 3 days, and passages were carried out twice a week before cells reached confluence. Prior to experiments, cells were passaged and plated out to give 10^4 cell/ml in 96-well multi-well plates. Cells were incubated for 24 hours with Dulbecco's modified Eagle's medium supplemented with 10% FCS to aid attachment. This was then removed and the experimental medium added.
Compounds were prepared following a general preparation protocol. This protocol consisted of taking a mass of compound, dissolving in the recommended solvent (40 μl) such that in the final preparation the concentrations of compound and solvent would be 100 μM and 0.1 respectively. In theory this volume was 40 μl, however for accuracy a mass larger than the required mass was dispensed and the solvent volume varied accordingly; only 40 μl of this solution was required for the next stage. The 40 μl volume was then added to a volume of FCS (1.2 ml), such that in the final preparation the concentration of FCS would be 3%. This solution was then added to DMEM containing L-glutamine (2 mM) (18.76 ml). The resulting solution of 20 ml volume was filter stabilised. This solution is now 200 μM in compound, 6% FCS and 0.2% solvent, and so was diluted 1:1 with the DMEM containing L-glutamine. This 100 μM stock could then be diluted serially to provide lower concentrations of the compound of interest. Solutions containing different ratios of compound and FCS were obtained in a similar manner.
This was performed, following the manufacturer's instructions, using an EZ4U assay kit, which is based upon the conversion of tetrazolium salt to coloured formazam derivatives by mitochondria (Hansen et al, 1989). Plates were read on a plate reader (Anthos Labtec HT2), using a measurement filter (450 nm), with a reference filter (620 nm) with a low Shaking density for 5 seconds prior to measurement. Control experiments were made against counting cells in a haemocytometer (sanders et al, 1996). There is some variance of results between different batches of FCS employed.
A series of cell growth potentiation/inhibition tests has been carried out in accordance with the procedure described above on some of the compounds of the invention, on compounds 11901 and 11903 and on minoxidil (a compound well known for its hair growth stimulation effects). Because of some variability of results with different batches of FCS, each compound was tested in a solution of a base concentration of FCS and was compared with minoxidil in a solution of the same base concentration of FCS and with a solution having the same base concentration of FCS alone (no additive), using the same FCS batch in order to provide standardised comparisons for that compound. […]

[2] = system: K+-stimulated isolated rat aorta; experiment: K+-stimulated isolated rat aorta test; conditions: relaxation of contraction triggered by 25 mM KCl in rat aorta rings; asterisk (*) = low activity, only approximate value
Method: K^+-stimulated Isolated Rat Aorta Test
Male rats weighing about 300 g are killed painlessly by a blow to the neck and quickly exsanguinated. The thoracic cavity is opened and the aorta is carefully resectioned. It is placed in a Petri dish filled with Krebs solution, and surrounding connective and fatty tissue is removed. Two rings are prepared. The rings are each suspended in an organ bath, They are attached at the bottom to a hook and at the top to an electrical force transducer which is able to measure precisely contractions of 0-10 grams in strength. The measured contractions are amplified by means of a bridge amplifier and recorded with a thermal plotter.
The organ baths are filled with Krebs solution at 37° C. through which an O2/CO2 mixture is bubbled thoroughly and which has the following composition (mmol/1): NaCl 118.4; KCl 4.7; CaCl2 2.5; KH2PO4 1.2; MgSO4 1.2; NaHCO3 25; glucose 11.
The rings are stretched with a basic tone of about 0.5 g, After an equilibration time of about 30 minutes, the rings are caused to undergo contraction by depolarization (addition of 25 mM KCl to the organ bath). The contractions of the rings of aorta, triggered by the depolarization, quickly reach a plateau, As soon as this plateau is reached (“100% value”), the test substance is added to the organ bath, initially at low concentrations, for example 10^−8M, and then in increasing doses at regular intervals, until the contractions reduce or the final concentration of 10^−4M is reached. Each test substance is tested 2-4 times in this way.
For purposes of evaluation, the height of the contractions registered on the plotter paper is measured for each experiment after the action of each test concentration added. The IC50 value can be calculated in this way in relation to the original height of contractions before the addition of substance (100%).

Row | SMILES | melting point [°C] | Cell growth potentiation relative to minoxidil at 100 μM (%) ([1]; Compound at 10 μM) | Cell growth potentiation relative to minoxidil at 100 μM (%) ([1]; Compound at 100 μM) | IC50 [2] [µM] | Cell growth relative to FCS alone (%) ([1]; Compound at 100 μM) | Cell growth relative to FCS alone (%) ([1]; Compound at 10 μM)
1 | CC1=C(C)C[C@@]2(CC(C)(C)Oc3cc(C#N)sc32)[S@+]([O-])C1 (relative stereo) [Compound 50097, rel-(1′R, 2′S)-3′,6,6′,7-Tetrahydro-4′,5,5′,5-tetramethyl-1′-oxospiro[5H-thieno[3,2-b]pyran-7,2′-2H-thiopyran]-2-carbonitrile] | 179 to 183 | 242 | 257 | ~10 |  | 
2 | CC1(C)Oc2cc(S(=O)(=O)c3ccccc3)sc2[C@@H](N2CCCC2=O)[C@@H]1O (relative stereo) [Compound 50123, rel-(6S,7S)-6,7-Dihydro-6-hydroxy-5,5-dimethyl-7-(2-oxo-1-pyrrolidinyl)-2-(phenylsulphonyl)-5H-thieno[3,2-b]pyran] |  | 120 |  | 0.026 | 94 | 
3 | CC1(C)CC2(SCCCS2)c2sccc2O1 [Compound 50048, 6′,7′-Dihydro-5′,5′-dimethylspiro[1,3-dithiane-2,7′-5H-thieno[3,2-b]pyran]] | 121 to 123 |  |  | 2.9 |  | 
4 | CC1=C(C)CC2(CC(C)(C)Oc3ccsc32)SC1 (stereo not drawn) [Compound 50049, 3′,6,6′,7-Tetrahydro-4′,5,5,5′-tetramethylspiro[5H-thieno[3,2-b]pyran-7,2′-2H-thiopyran]] | 90 to 92 |  |  | ~10 | 50 | 100
5 | CC1(C)CC2(SCCCS2)c2sc(C#N)cc2O1 [Compound 50057, 6′,7′-Dihydro-5′,5′-dimethylspiro[1,3-dithiane-2,7′-5H-thieno[3,2-b]pyran]-2′-carbonitrile] |  |  | 33 | ~10 |  | 98
6 | CC1=C(C)CC2(CC(C)(C)Oc3cc(C#N)sc32)SC1 (stereo not drawn) [Compound 50092, 3′,6,6′,7-Tetrahydro-4′,5,5,5′-tetramethylspiro[5H-thieno[3,2-b]pyran-7,2′-2H-thiopyran]-2-carbonitrile] | 148 to 149 | 214 | 71 | ~10 |  | 
7 | CC1(C)C=C(N2CCCC2=O)c2sc(S(=O)(=O)c3ccccc3)cc2O1 [Compound 50109, 5,5-Dimethyl-7-(2-oxo-1-pyrrolidinyl)-2-(phenylsulphonyl)-5H-thieno[3,2-b]pyran] |  | 233 | 122 | 0.24 |  | 
8 | CC1=C(C)CC2(CC(C)(C)Oc3cc(S(=O)(=O)c4ccccc4)sc32)SC1 (stereo not drawn) [Compound 50121, 3′,6,6′,7-Tetrahydro-4′,5,5,5′-tetramethyl-2-(phenylsulphonyl)spiro[5H-thieno[3,2-b]pyran-7,2′-2H-thiopyran]] | 175 to 178 | 285 | 271 | > 100 |  | 
